Test results taken from patent publication US9932340B2, “Substituted indoles” (AbbVie Inc., priority 2014, dated 2018).

target: SUV420H1 enzyme (Homo sapiens, UniProt Q4FZB7); assay: TR-FRET SAH SUV420H1 enzyme inhibition assay; type: biochemical; conditions: Histone Peptide H4(8-30)me1 and SAM, overnight at room temp, TR-FRET detection of SAH, read-out: TR-FRET SAH_SUV420H1 IC50
Summary of the method: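 SUV420H1 (90 nM) preincubated 30 min with compound (3-fold dilutions, 50 to 0.00075 μM), then H4(8-30)me1 peptide 5 nM and SAM 4 nM added, overnight at room temp. SAH product detected by TR-FRET with Tb anti-SAH antibody and Oregon Green-SAH in RIPA buffer, 4 h; IC50 from Hill fit, asymptotes fixed 0-100%.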

Chain of SUV420H1 enzyme (Q4FZB7 whole entry): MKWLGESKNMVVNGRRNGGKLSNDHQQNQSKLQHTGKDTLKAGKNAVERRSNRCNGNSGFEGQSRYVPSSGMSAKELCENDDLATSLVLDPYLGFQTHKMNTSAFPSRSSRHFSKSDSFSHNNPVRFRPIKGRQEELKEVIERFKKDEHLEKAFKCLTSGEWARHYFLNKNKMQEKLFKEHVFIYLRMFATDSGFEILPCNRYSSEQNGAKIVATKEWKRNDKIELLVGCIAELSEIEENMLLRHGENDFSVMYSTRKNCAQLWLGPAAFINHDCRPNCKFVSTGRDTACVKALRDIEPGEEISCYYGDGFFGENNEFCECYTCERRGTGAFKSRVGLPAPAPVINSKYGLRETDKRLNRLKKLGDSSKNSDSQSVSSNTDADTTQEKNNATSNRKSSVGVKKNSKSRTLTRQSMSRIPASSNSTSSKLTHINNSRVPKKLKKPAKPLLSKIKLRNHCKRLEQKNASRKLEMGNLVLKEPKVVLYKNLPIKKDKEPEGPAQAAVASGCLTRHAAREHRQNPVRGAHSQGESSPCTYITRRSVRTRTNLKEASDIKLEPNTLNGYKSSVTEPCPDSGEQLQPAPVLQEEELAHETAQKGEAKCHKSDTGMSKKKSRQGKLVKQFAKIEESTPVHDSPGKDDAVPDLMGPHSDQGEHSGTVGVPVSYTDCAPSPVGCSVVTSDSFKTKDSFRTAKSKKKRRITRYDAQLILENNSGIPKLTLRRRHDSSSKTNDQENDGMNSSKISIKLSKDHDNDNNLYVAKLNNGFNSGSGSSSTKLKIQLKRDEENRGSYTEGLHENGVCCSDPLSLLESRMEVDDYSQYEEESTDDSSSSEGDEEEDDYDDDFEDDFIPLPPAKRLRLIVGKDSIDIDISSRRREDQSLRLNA

Structure (SMILES) | IC50
Nc1ncnc2c1ncn2Cc1cc(Cl)cc2cc(CNC(=O)c3nc4[nH]ccc4cc3Cl)[nH]c12 [Example 349, N-({7-[(6-amino-9H-purin-9-yl)methyl]-5-chloro-1H-indol-2-yl}methyl)-5-chloro-1H-pyrrolo[2,3-b]pyridine-6-carboxamide] | 8.78 µM
Nc1ncnc2c1ncn2Cc1cc(Cl)cc2cc(CNC(=O)c3cscn3)[nH]c12 [Example 140, N-({7-[(6-amino-9H-purin-9-yl)methyl]-5-chloro-1H-indol-2-yl}methyl)-1,3-thiazole-4-carboxamide] | 6.09 µM
NCc1cc2ccc(-c3ccccc3)c(Cn3cnc4c(N)ncnc43)c2[nH]1 [Example 61, 9-{[2-(aminomethyl)-6-phenyl-1H-indol-7-yl]methyl}-9H-purin-6-amine] | 20.3 µM
Nc1ncnc2c1ncn2Cc1cccc2cc[nH]c12 [Example 5, 9-(1H-indol-7-ylmethyl)-9H-purin-6-amine] | 13.9 µM
COc1cccc(CCC(=O)NCc2cc3cc(Cl)cc(Cn4cnc5c(N)ncnc54)c3[nH]2)c1 [Example 316, N-({7-[(6-amino-9H-purin-9-yl)methyl]-5-chloro-1H-indol-2-yl}methyl)-3-(3-methoxyphenyl)propanamide] | 13 µM
Nc1ncnc2c1ncn2Cc1cc(Cl)cc2cc(CNC(=O)c3cn[nH]c3)[nH]c12 [Example 143, N-({7-[(6-amino-9H-purin-9-yl)methyl]-5-chloro-1H-indol-2-yl}methyl)-1H-pyrazole-4-carboxamide] | 24 µM
Nc1ncnc2c1ncn2Cc1cc(Cl)cc2cc(CNC(=O)c3c(O)cccc3F)[nH]c12 [Example 229, N-({7-[(6-amino-9H-purin-9-yl)methyl]-5-chloro-1H-indol-2-yl}methyl)-2-fluoro-6-hydroxybenzamide] | > 50 µM
Nc1ncnc2c1ncn2Cc1cc(Cl)cc2cc(CNC(=O)c3cccs3)[nH]c12 [Example 144, N-({7-[(6-amino-9H-purin-9-yl)methyl]-5-chloro-1H-indol-2-yl}methyl)thiophene-2-carboxamide] | 4.6 µM
NCc1cc2ccc(Cl)c(Cn3cnc4c(N)ncnc43)c2[nH]1 [Example 58, 9-{[2-(aminomethyl)-6-chloro-1H-indol-7-yl]methyl}-9H-purin-6-amine] | 7.88 µM
CN(C)c1cccc(C(=O)NCc2cc3cc(Cl)cc(Cn4cnc5c(N)ncnc54)c3[nH]2)c1 [Example 309, N-({7-[(6-amino-9H-purin-9-yl)methyl]-5-chloro-1H-indol-2-yl}methyl)-3-(dimethylamino)benzamide] | 7.31 µM
CC(C)(O)CC(=O)NCc1cc2cc(Cl)cc(Cn3cnc4c(N)ncnc43)c2[nH]1 [Example 103, N-({7-[(6-amino-9H-purin-9-yl)methyl]-5-chloro-1H-indol-2-yl}methyl)-3-hydroxy-3-methylbutanamide] | 25.3 µM
CC(=O)Nc1ccc(C(=O)NCc2cc3cc(Cl)cc(Cn4cnc5c(N)ncnc54)c3[nH]2)cc1 [Example 313, 4-(acetylamino)-N-({7-[(6-amino-9H-purin-9-yl)methyl]-5-chloro-1H-indol-2-yl}methyl)benzamide] | > 50 µM
Nc1ncnc2c1ncn2Cc1cc(Cl)cc2cc(CNC(=O)CCN3CCCCC3)[nH]c12 [Example 135, N-({7-[(6-amino-9H-purin-9-yl)methyl]-5-chloro-1H-indol-2-yl}methyl)-3-(piperidin-1-yl)propanamide] | 4.54 µM
COc1ccccc1CC(=O)NCc1cc2cc(Cl)cc(Cn3cnc4c(N)ncnc43)c2[nH]1 [Example 298, N-({7-[(6-amino-9H-purin-9-yl)methyl]-5-chloro-1H-indol-2-yl}methyl)-2-(2-methoxyphenyl)acetamide] | 5.98 µM
Cc1ccc(CNCc2cc3cc(Cl)cc(Cn4cnc5c(N)ncnc54)c3[nH]2)cc1 [Example 241, 9-[(5-chloro-2-{[(4-methylbenzyl)amino]methyl}-1H-indol-7-yl)methyl]-9H-purin-6-amine] | 3.63 µM
Cc1sccc1C(=O)NCc1cc2cc(Cl)cc(Cn3cnc4c(N)ncnc43)c2[nH]1 [Example 156, N-({7-[(6-amino-9H-purin-9-yl)methyl]-5-chloro-1H-indol-2-yl}methyl)-2-methylthiophene-3-carboxamide] | 7.92 µM
Cc1scnc1C(=O)NCc1cc2cc(Cl)cc(Cn3cnc4c(N)ncnc43)c2[nH]1 [Example 147, N-({7-[(6-amino-9H-purin-9-yl)methyl]-5-chloro-1H-indol-2-yl}methyl)-5-methyl-1,3-thiazole-4-carboxamide] | 5.79 µM
Nc1ncnc2c1ncn2Cc1cc(Cl)cc2cc(CNC(=O)N3CCC(c4ccccc4F)C3)[nH]c12 (stereo not drawn) [Example 319, N-({7-[(6-amino-9H-purin-9-yl)methyl]-5-chloro-1H-indol-2-yl}methyl)-3-(2-fluorophenyl)pyrrolidine-1-carboxamide] | 3.39 µM

Now those with a lower IC50, led by results:

IC50 | Structure (SMILES)
0.0277 µM | CC(=O)N1CC=C(c2cc(Cn3cnc4c(N)ncnc43)c3[nH]c(CNC(=O)c4ccnnc4C)cc3c2)CC1 [Example 203, N-({5-(1-acetyl-1,2,3,6-tetrahydropyridin-4-yl)-7-[(6-amino-9H-purin-9-yl)methyl]-1H-indol-2-yl}methyl)-3-methylpyridazine-4-carboxamide]
1 µM | NCc1cc2c(-c3ccccc3)ccc(Cn3cnc4c(N)ncnc43)c2[nH]1 [Example 70, 9-{[2-(aminomethyl)-4-phenyl-1H-indol-7-yl]methyl}-9H-purin-6-amine]
0.293 µM | CN1CCN(Cc2cccc(-c3cc(Cn4cnc5c(N)ncnc54)c4[nH]c(CN)cc4c3)c2)CC1 [Example 55, 9-{[2-(aminomethyl)-5-{3-[(4-methylpiperazin-1-yl)methyl]phenyl}-1H-indol-7-yl]methyl}-9H-purin-6-amine]
0.05 µM | Cc1cc(C#N)ccc1C(=O)NCc1cc2cc(C3=CCN(C(=O)OC(C)(C)C)CC3)cc(Cn3cnc4c(N)ncnc43)c2[nH]1 [Example 308]
1.88 µM | Cn1ccc2ccc(C(=O)NCc3cc4cc(Cl)cc(Cn5cnc6c(N)ncnc65)c4[nH]3)cc21 [Example 365]
0.139 µM | Cc1noc(C)c1C(=O)NCc1cc2cc(-c3ccccc3)cc(Cn3cnc4c(N)ncnc43)c2[nH]1 [Example 164, N-({7-[(6-amino-9H-purin-9-yl)methyl]-5-phenyl-1H-indol-2-yl}methyl)-3,5-dimethyl-1,2-oxazole-4-carboxamide]
2.15 µM | Cn1cnc2cc(C(=O)NCc3cc4cc(Cl)cc(Cn5cnc6c(N)ncnc65)c4[nH]3)ccc21 [Example 361, N-({7-[(6-amino-9H-purin-9-yl)methyl]-5-chloro-1H-indol-2-yl}methyl)-1-methyl-1H-benzimidazole-5-carboxamide]
0.45 µM | CS(=O)(=O)Nc1cccc(-c2cc(Cn3cnc4c(N)ncnc43)c3[nH]c(CN)cc3c2)c1 [Example 42, N-(3-{2-(aminomethyl)-7-[(6-amino-9H-purin-9-yl)methyl]-1H-indol-5-yl}phenyl)methanesulfonamide]
1.99 µM | Nc1ncnc2c1ncn2Cc1cc(Cl)cc2cc(CNC(=O)c3ccccc3OC(F)F)[nH]c12 [Example 261, N-({7-[(6-amino-9H-purin-9-yl)methyl]-5-chloro-1H-indol-2-yl}methyl)-2-(difluoromethoxy)benzamide]
0.116 µM | Cc1noc(C)c1C(=O)NCc1cc2cc(-c3cccc(C(=O)NC4CC4)c3)cc(Cn3cnc4c(N)ncnc43)c2[nH]1 [Example 178, N-({7-[(6-amino-9H-purin-9-yl)methyl]-5-[3-(cyclopropylcarbamoyl)phenyl]-1H-indol-2-yl}methyl)-3,5-dimethyl-1,2-oxazole-4-carboxamide]
0.607 µM | Cc1cccc(C)c1C(=O)NCc1cc2cc(Cl)cc(Cn3cnc4c(N)ncnc43)c2[nH]1 [Example 295, N-({7-[(6-amino-9H-purin-9-yl)methyl]-5-chloro-1H-indol-2-yl}methyl)-2,6-dimethylbenzamide]
2.33 µM | Nc1ncnc2c1ncn2Cc1cc(Cl)cc2cc(CNCc3cccc(Cl)c3F)[nH]c12 [Example 218, 9-[(5-chloro-2-{[(3-chloro-2-fluorobenzyl)amino]methyl}-1H-indol-7-yl)methyl]-9H-purin-6-amine]
3.08 µM | CCc1ccc(Cn2cnc3c(N)ncnc32)c2[nH]c(CN)cc12 [Example 64, 9-{[2-(aminomethyl)-4-ethyl-1H-indol-7-yl]methyl}-9H-purin-6-amine]
1.87 µM | C=Cc1cc(Cn2cnc3c(N)ncnc32)c2[nH]c(CN)cc2c1 [Example 10, 9-{[2-(aminomethyl)-5-ethenyl-1H-indol-7-yl]methyl}-9H-purin-6-amine]
1.75 µM | CS(=O)(=O)c1cc(CNCc2cc3cc(Cl)cc(Cn4cnc5c(N)ncnc54)c3[nH]2)ccc1F [Example 263, 9-{[5-chloro-2-({[4-fluoro-3-(methylsulfonyl)benzyl]amino}methyl)-1H-indol-7-yl]methyl}-9H-purin-6-amine]
0.0351 µM | N#Cc1ccc(C(=O)NCc2cc3cc(C4=CCNCC4)cc(Cn4cnc5c(N)ncnc54)c3[nH]2)c(Cl)c1 [Example 277, N-({7-[(6-amino-9H-purin-9-yl)methyl]-5-(1,2,3,6-tetrahydropyridin-4-yl)-1H-indol-2-yl}methyl)-2-chloro-4-cyanobenzamide]
0.691 µM | CCc1onc(C)c1C(=O)NCc1cc2cc(Cl)cc(Cn3cnc4c(N)ncnc43)c2[nH]1 [Example 185, N-({7-[(6-amino-9H-purin-9-yl)methyl]-5-chloro-1H-indol-2-yl}methyl)-5-ethyl-3-methyl-1,2-oxazole-4-carboxamide]
0.393 µM | Cc1noc2ncc(C(=O)NCc3cc4cc(Cl)cc(Cn5cnc6c(N)ncnc65)c4[nH]3)cc12 [Example 351, N-({7-[(6-amino-9H-purin-9-yl)methyl]-5-chloro-1H-indol-2-yl}methyl)-3-methyl[1,2]oxazolo[5,4-b]pyridine-5-carboxamide]
